The text below walks through data of publication PMC11945486, “TAS1R2/TAS1R3 Single-Nucleotide Polymorphisms Affect Sweet Taste Receptor Activation by Sweeteners: The SWEET Project” (Nutrients, 2025).

For this experiment, the target named is T1, human TAS1R2-WT/TAS1R3-G367C (Homo sapiens, UniProt Q7RTX0+Q8TE23, G367C).
T1 construct: expressed in transfected cells; host or cells: HEK293T stably expressing Gα16gust44
T1 sequence (Q8TE23 20-839): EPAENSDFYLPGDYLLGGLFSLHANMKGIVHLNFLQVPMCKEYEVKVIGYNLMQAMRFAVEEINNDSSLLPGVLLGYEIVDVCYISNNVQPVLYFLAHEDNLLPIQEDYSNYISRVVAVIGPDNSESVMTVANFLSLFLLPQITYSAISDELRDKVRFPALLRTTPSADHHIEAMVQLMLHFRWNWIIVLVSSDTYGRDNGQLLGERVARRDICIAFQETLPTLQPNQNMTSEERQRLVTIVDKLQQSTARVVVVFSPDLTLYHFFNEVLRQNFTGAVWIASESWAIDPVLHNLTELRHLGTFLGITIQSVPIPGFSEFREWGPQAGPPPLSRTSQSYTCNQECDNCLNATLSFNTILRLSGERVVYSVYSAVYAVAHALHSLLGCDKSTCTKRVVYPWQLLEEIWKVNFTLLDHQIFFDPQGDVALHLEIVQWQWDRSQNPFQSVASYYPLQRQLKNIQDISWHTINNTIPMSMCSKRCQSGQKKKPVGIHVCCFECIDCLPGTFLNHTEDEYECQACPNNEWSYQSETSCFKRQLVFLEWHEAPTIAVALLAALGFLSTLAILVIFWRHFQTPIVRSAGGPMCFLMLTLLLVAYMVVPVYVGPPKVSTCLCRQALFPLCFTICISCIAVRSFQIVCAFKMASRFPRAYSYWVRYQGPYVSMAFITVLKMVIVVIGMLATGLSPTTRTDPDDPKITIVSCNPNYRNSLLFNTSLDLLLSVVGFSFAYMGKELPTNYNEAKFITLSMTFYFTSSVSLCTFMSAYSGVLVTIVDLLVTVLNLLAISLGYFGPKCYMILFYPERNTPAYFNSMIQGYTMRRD
T1 sequence (Q7RTX0 21-852 G367C): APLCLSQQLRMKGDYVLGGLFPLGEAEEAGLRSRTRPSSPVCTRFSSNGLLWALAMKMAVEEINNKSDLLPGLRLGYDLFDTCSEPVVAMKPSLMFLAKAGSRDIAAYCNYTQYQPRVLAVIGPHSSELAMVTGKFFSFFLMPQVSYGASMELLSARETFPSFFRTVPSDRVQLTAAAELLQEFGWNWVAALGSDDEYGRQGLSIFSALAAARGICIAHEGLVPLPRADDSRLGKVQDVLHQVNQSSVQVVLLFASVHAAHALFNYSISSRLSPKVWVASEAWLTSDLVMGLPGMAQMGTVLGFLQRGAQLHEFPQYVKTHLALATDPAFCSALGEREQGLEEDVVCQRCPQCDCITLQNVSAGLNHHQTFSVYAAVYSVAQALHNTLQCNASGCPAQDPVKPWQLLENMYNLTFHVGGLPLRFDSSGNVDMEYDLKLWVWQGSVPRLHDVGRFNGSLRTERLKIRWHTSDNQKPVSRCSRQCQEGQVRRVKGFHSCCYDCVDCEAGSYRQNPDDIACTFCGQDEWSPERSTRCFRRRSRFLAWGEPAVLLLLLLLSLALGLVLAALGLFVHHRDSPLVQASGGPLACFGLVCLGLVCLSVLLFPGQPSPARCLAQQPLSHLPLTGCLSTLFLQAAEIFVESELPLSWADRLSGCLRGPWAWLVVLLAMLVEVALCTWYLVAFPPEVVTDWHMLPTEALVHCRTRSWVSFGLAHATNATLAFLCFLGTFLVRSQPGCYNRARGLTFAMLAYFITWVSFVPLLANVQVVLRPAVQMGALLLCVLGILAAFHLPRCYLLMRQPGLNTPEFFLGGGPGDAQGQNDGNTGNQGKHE
Briefly: Calcium mobilisation assay, TAS1R2-WT with TAS1R3 variant G367C. The class given is cell-based. The conditions noted are these: for Max ΔF/F0: maximal signal amplitude. An excerpt: The coding sequences for TAS1R2 and TAS1R3 were commercially synthesised, and the human codon was optimised for expression in human cells. The coding sequences of human TAS1R2 and TAS1R3 were subcloned and inserted into the mammalian expression vectors pcDNA6/myc-HisA and pcDNA4/myc-HisA (Invitrogen; Thermo Fisher Scientific; Illkirch, France) between the EcoRI and NotI restriction sites, generating the plasmids pcDNA6-TAS1R2 and pcDNA4-TAS1R3, respectively. To increase protein expression in mammalian cells, an upstream start codon was used, which was a sequence called MAX, corresponding to the QBI SP163 element also described in pcDNA4-HisMax (Invitrogen; Thermo Fisher Scientific; Illkirch, France). To measure the expression level of the receptor by immunohistochemistry, we used the FLAG sequence ([…]) in the C-terminal position, which encodes the FLAG tag epitope. SNP variants of TAS1R2 and TAS1R3 were constructed based on […], respectively, using site-directed mutagenesis (Genewiz; Leipzig, Germany).
The HEK293T cells were kindly provided by Jay P. Slack (Givaudan Flavors Corporation; Cincinnati, OH, USA). HEK293T cells stably transfected with Gα16gust44 [43, 67] were seeded in poly-D-lysine-coated clear-bottom black 96-well plates (0.35 × 10^5 cells/well) in high-glucose DMEM supplemented with 2 mM GlutaMAX, 10% dialysed foetal bovine serum with penicillin/streptomycin and G418 (400 μg/mL) at 37 °C and 6.3% CO2 in a humidified atmosphere as previously reported. […] As a negative control, HEK293T cells were mock-transfected with the empty expression vector. After a further 24 h of incubation, the HEK293T cells were washed with C1 buffer (130 mM NaCl, 5 mM KCl, 10 mM HEPES pH 7.4 and 2 mM CaCl2). The 96-well plates containing the cells were then stimulated with sweet-tasting compounds. […] Different concentration ranges were tested depending on the sweet compound injected. The Ca^2+ changes were expressed as fractional changes in fluorescent light intensity: ΔF/F = (F − F0)/F0, where F was the fluorescent light intensity at each point, and F0 was the value of emitted fluorescent light prior to stimulus application. To calculate dose–response relationships, the changes in fluorescence upon stimulus application were averaged, mock-subtracted and baseline-corrected. The dose–response data obtained were adjusted using a 4-parameter logistic equation. The half-maximal effective concentrations (EC50 values) and maximal signal amplitudes were calculated using SigmaPlot software (version 15.0) (Systat Software; San Jose, CA, USA).
For in vitro calcium mobilisation assay performed on hTAS1R2-SNPs, hTAS1R3-SNPs and mTAS1R3-I60T, 6 to 7 concentrations were tested for each sweet compound, plus buffer alone. All concentration–receptor combinations were measured in duplicate, and each experiment was repeated at least 4 times (8 wells/concentration). Results were expressed for each concentration as ΔF/F mean ± SEM and represented as dose–response curves.
For orientation: Calcium assays in cells follow changes in intracellular calcium, usually with a dye or a luminescent sensor.

Where two headings read alike, the source gives them in different places. No end group written: not given here.

Usually EC50 stands for the midpoint of the concentration-response curve. As to `CC1=CC(=O)NS(=O)(=O)O1` [Acesulfame K, acesulfame K], the “R1 = Variant EC50/WT EC50” value was found to be 0.7 and the “Max ΔF/F0” value came to 0.06 ± 0.01. For the same molecule, under “read-out: EC50”, the EC50 was 443 ± 121 µM.
In the case of `O=S(=O)(O)NC1CCCCC1` [Cyclamate, cyclamate], the EC50 (read-out: EC50) was determined as 2120 ± 34 µM.
Turning to `C[C@H](CC[C@@H](O[C@@H]1O[C@H](CO[C@@H]2O[C@H](CO)[C@@H](O)[C@H](O)[C@H]2O)[C@@H](O)[C@H](O)[C@H]1O[C@@H]1O[C@H](CO)[C@@H](O)[C@H](O)[C@H]1O)C(C)(C)O)[C@H]1CC[C@@]2(C)[C@@H]3CC=C4[C@@H](CC[C@H](O[C@@H]5O[C@H](CO[C@@H]6O[C@H](CO)[C@@H](O)[C@H](O)[C@H]6O)[C@@H](O)[C@H](O)[C@H]5O)C4(C)C)[C@]3(C)[C@H](O)C[C@]12C` [Mogroside V, mogroside V], the “R1 = Variant EC50/WT EC50” value worked out at 2.6 and the “Max ΔF/F0” value is on record as 0.60 ± 0.02. In addition, the EC50 (read-out: EC50) is 82.4 ± 5.2 µM.
On to `COc1ccc(CCC(=O)c2c(O)cc(O[C@@H]3O[C@H](CO)[C@@H](O)[C@H](O)[C@H]3O[C@@H]3O[C@@H](C)[C@H](O)[C@@H](O)[C@H]3O)cc2O)cc1O` [NHDC, neohesperidin dihydrochalcone], for which the “R1 = Variant EC50/WT EC50” value worked out at 1.6 and the “Max ΔF/F0” value was 0.75 ± 0.05. Further, where the note is “read-out: EC50”, the EC50 worked out at 81.3 ± 13.1 µM.
For `COC(=O)[C@H](Cc1ccccc1)NC(=O)[C@H](CC(=O)O)NCCC(C)(C)C` [Neotame], in that order: 1.6, 0.31 ± 0.01 and 1.95 ± 0.09 µM.
For `C=C(C)[C@@H]1CC=C(/C=N/O)CC1` [Perillartine, perillartine], in that order: 2.3, 1.49 ± 0.24 and 32 ± 17.1 µM.
Consider `C=C1C[C@@]23CC[C@H]4[C@@](C)(CCC[C@@]4(C)C(=O)O[C@@H]4O[C@H](CO)[C@@H](O)[C@H](O[C@@H]5O[C@H](CO)[C@@H](O)[C@H](O)[C@H]5O)[C@H]4O[C@@H]4O[C@H](CO)[C@@H](O)[C@H](O)[C@H]4O)[C@@H]2CC[C@]1(O[C@@H]1O[C@H](CO)[C@@H](O)[C@H](O[C@@H]2O[C@H](CO)[C@@H](O)[C@H](O)[C@H]2O)[C@H]1O[C@@H]1O[C@H](CO)[C@@H](O)[C@H](O)[C@H]1O)C3` [Rebaudioside M, rebaudioside M], for which the “R1 = Variant EC50/WT EC50” value is given as 1.2 and the “Max ΔF/F0” value amounted to 0.35 ± 0.01. Besides, the EC50 (read-out: EC50) turned out to be 47.3 ± 1.9 µM.
Regarding `OC[C@H]1O[C@H](O[C@]2(CCl)O[C@H](CCl)[C@@H](O)[C@@H]2O)[C@H](O)[C@@H](O)[C@H]1Cl` [Sucralose], the “R1 = Variant EC50/WT EC50” value stood at 1.7 and the “Max ΔF/F0” value is listed as 0.32 ± 0.01. For the same molecule, the concentration giving a half-maximal response (EC50) (read-out: EC50) was determined as 182 ± 7 µM.
As to “brazzein (QDKCKKVYENYPVSKCQLANQCNYDCKLDKHARSGECFYDEKRNLQCICDYCEY; ends and bridges not checked; cysteine pairing not given here; UniProt P56552 1-54, looked up) [sweet-tasting protein obtained by recombinant production using the yeast Pichia pastoris]”, the “R1 = Variant EC50/WT EC50” value amounted to 1.6 and the “Max ΔF/F0” value was 0.72 ± 0.01. Further, where the note is “brazzein”, the EC50 is 181.7 ± 6.9 mg/L.
Take thaumatin: the “R1 = Variant EC50/WT EC50” value came to 1.4 and the “Max ΔF/F0” value came out at 0.52 ± 0.01.

B1: thaumatin (protein)
chain: ATFEIVNRCSYTVWAAASKGDAALDAGGRQLNSGESWTINVEPGTKGGKIWARTDCYFDDSGSGICKTGDCGGLLRCKRFGRPPTTLAEFSLNQYGKDYIDISNIKGFNVPMDFSPTTRGCRGVRCAADIVGQCPAKLKAPGGGCNDACTVFQTSEYCCTTGKCGPTEYSRFFKRLCPDAFSYVLDKPTTVTCPGSSNYRVTFCPTA
modifications: Eight disulfides
notes: sweet-tasting plant protein, E957
Regarding B1, the EC50 (read-out: EC50) turned out to be 14.8 ± 0.5 µM.
